Source: patent US11026426B2, “Oxadiazole and phenol derivatives as antibacterial and/or herbicidal agents” (NORTHERN ILLINOIS RESEARCH FOUNDATION, priority 2017, dated 2021)
Like-named read-outs stand apart in the source and are kept apart here.

Legend:
[1] = target: T1, Ec IspD (Escherichia coli, UniProt Q46893); experiment: Thermal shift (DSF) screening against Ec IspD; assay type: binding; conditions: for change in the observed melting temperature of Ec IspD: MicroSource Spectrum screening
Protocol: The library based screening technique in conjunction with the thermal shift assay was implemented to evaluate compounds from Spectrum collection.
All DSF experiments were performed in 50 mM phosphate buffer at pH 7.4, 150 mM NaCl, 1×SYPRO orange, 2% DMSO and 200 to 1000 nM of the enzyme with a total volume of 25 μL. Final enzyme concentrations used were […] for Ec IspD and 0.5 μM for Bt IspD. Samples were measured on a Bio-Rad iQ5 Real-Time PCR (Bio-Rad Life Sciences) using a temperature range of 25 to 95° C. at a rate of 1° C. per minute with the fluorescence measured every 0.5° C. every 10 seconds with wavelengths of 530 and 570 nm used for excitation and emission, respectively. The melting temperature (Tm value) was determined from the first derivative of the graph of relative fluorescence units vs. temperature.

[2] = target: T1, Ec IspD; experiment: EnzChek enzymatic activity assay Ec IspD; assay type: biochemical
Protocol: The EnzChek® assay has a phosphate sensitivity of 2-150 μM. To ensure there is no interference caused by assay components, three standards were performed on each plate: buffer only, without CTP and without MEP.
Here, for the plate-based assay, IspD converts MEP to CDP-ME pyrophosphate, which in turn is converted to inorganic phosphate (Pi) with the enzyme inorganic pyrophosphatase. The EnzChek® Phosphate Assay kit follows the formation of the inorganic phosphate through a reaction with 2-amino-6-mercapto-7-methylpurine riboside (MESG) and the enzyme purine nucleoside phosphorylase (PNP). This reaction converts the MESG into ribose 1-phosphate and 2-amino-6-mercapto-7-methylpurine resulting in a spectrophotometric shift in a maximum absorbance from 330 nm to 360 nm. Reactions were performed in 50 μL final volumes in 96-well clear flat bottom plates, and were initiated by addition of 50 ng purified Ec IspD. Absorbance at 360 nm was measured every 31 seconds for 20 minutes on a Synergy 2 Multi-Mode plate reader (BioTek), preheated to 37° C. Final concentration of reagents was as follows: 1×EnzChek® reaction buffer (50 mM Tris pH 7.5, 1 mM magnesium chloride (MgCl2), 100 μM sodium azide (NaN3)), 0.2 mM MESG, 1 U/ml PNP, 1 U/mL inorganic Pyrophosphatase (NEB), 200 mM CMP (Sigma), and 50 μM MEP (Echelon).

[3] = target: T2, Mycobacterium tuberculosis IspD (MtIspD) (Mycobacterium tuberculosis, UniProt P9WKG9); experiment: Thermal shift assay against MtIspD; assay type: binding
T2 sequence (P9WKG9 1-231): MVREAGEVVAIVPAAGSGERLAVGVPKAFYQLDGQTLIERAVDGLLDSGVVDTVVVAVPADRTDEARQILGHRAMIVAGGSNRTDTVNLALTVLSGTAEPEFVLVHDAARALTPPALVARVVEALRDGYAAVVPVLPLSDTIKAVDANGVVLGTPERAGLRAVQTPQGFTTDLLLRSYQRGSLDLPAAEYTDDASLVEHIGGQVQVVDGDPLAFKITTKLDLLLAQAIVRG

[4] = target: Lycopersicon esculentum IspE (LeIspE) (Solanum lycopersicum, UniProt P93841); experiment: Thermal shift assay against LeIspE; assay type: binding
[5] = test system: Corynebacterium pseudodiphtheriae; experiment: Antibacterial preliminary screening CP; assay type: cell-based; conditions: score 0-3;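 note: 0 is no inhibition and 3 matches the commercial antibiotic control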
[6] = target: AtIspD (Arabidopsis thaliana, UniProt P69834); experiment: University of Hamburg photometric enzymatic inhibition assay AtIspD; assay type: biochemical; conditions: read-out: AtIspD IC50
Outline: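 Coupled photometric assay: 2.4 mU AtIspD with 1 mM (2R,3S)-2,3-dihydroxy-4-oxopentyl phosphate, 2.1 mM CTP, excess IspE (0.4 U), ATP, pyruvate kinase/lactate dehydrogenase and 460 μM NADH. Run in 100 mM Tris-HCl pH 8.0, 10 mM MgCl2, 1 mM DTT, 1.1% DMSO at 27 °C, monitored photometrically.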

[7] = target: AtIspF (Arabidopsis thaliana, UniProt Q9CAK8); experiment: University of Hamburg photometric enzymatic inhibition assay AtIspF; assay type: biochemical; conditions: read-out: AtIspF IC50
Outline: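 Coupled photometric assay (CMP kinase/pyruvate kinase/lactate dehydrogenase, NADH consumption) with 2.4 mU AtIspF and 1 mM 4-diphosphocytidyl-2C-methylerythritol 2-phosphate, 2 mM ATP, in 100 mM Tris-HCl pH 8.0, 10 mM MgCl2, 1.1% DMSO. Monitored at 27 °C.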

[8] = test system: Corynebacterium xerosis; experiment: Antibacterial preliminary screening CX; assay type: cell-based; conditions: score 0-3; note: key: 0 represents no inhibition; 3 is comparable to commercial antibiotic control
[9] = test system: Burkholderia thailandensis; assay type: cell-based; conditions: preliminary screening; for BT score: score 0-3
[10] = test system: Bacillus cereus; experiment: Antibacterial preliminary screening BC; assay type: cell-based; conditions: score 0-3; note: key: 0 represents no inhibition; 3 is comparable to commercial antibiotic control
[11] = test system: lettuce seeds; experiment: Lettuce leaf assay; assay type: in vivo; design: key: 0 (no effect); 5(complete inhibition or bleaching); conditions: ranking 0-5
Outline: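 Qualitative assay: compounds in volatile organic solvent applied to filter paper in a petri dish, solvent evaporated, lettuce seeds and 5 mL water added to give test concentrations. Germination, root development and leaf bleaching scored days 3 and 4, ranked 0 (no effect) to 5 (complete inhibition or bleaching).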

[12] = test system: Micrococcus luteus; experiment: Antibacterial preliminary screening ML; assay type: cell-based; conditions: score 0-3; note: key: 0 represents no inhibition; 3 is comparable to commercial antibiotic control
[13] = test system: Escherichia coli; experiment: Antibacterial preliminary screening EC; assay type: cell-based; conditions: score 0-3; note: key: 0 represents no inhibition; 3 is comparable to commercial antibiotic control
[14] = target: E. coli IspD (Escherichia coli, UniProt Q46893); experiment: IspD assay (Washington University, EnzCheck phosphate) EcIspD; assay type: biochemical; conditions: up to 100 μM; bar graph at 12.5 and 100 μM
Protocol: Compounds were tested against IspD from Escherichia coli and Plasmodium falciparum. The assay measured activity through monitoring phosphate levels released by IspD enzyme over time using conditions published previously. The assay utilized the EnzCheck phosphate assay kit to quantify phosphate released by IspD. Reactions were done in a 96-well plate with each well containing a final volume of 50 μL. Concentrations of reagents were as follows: 100 mM NaCl, 25 mM Tris at pH 7.0, 7.5 mM MgCl2, 1 mM dithiothreitol, 1 U/mL purine nucleoside phosphorylase, and 0.1 U/mL yeast inorganic pyrophosphatase, 50 μM CTP, 500 μM MEP, 0.1% DMSO, and 0.2 mM 2-Amino-6-mercapto-7-methyl puring riboside. Reactions with EclspD used 2 nM EclspD and reactions with PfIspD used 50 nM PfIspD. Reactions involved pre-warming the enzyme and buffers to 37° C. with different inhibitor concentrations followed by the addition of the purified MEP substrate. Absorbance was measured at 360 nm over time and values were used to create regression analysis curves from three trials and values were converted to (μM MEP)(μM enzyme)^−1s^−1 using a standard phosphate curve. These values were then used to identify percent activity compared to enzyme activity without the inhibitor. Results are indicated.

[15] = test system: Mycobacterium smegmatis; experiment: Antibacterial preliminary screening MS; assay type: cell-based; conditions: for MS score: score 0-3
[16] = test system: Klebsiella pneumonia; experiment: Antibacterial preliminary screening KP; assay type: cell-based; conditions: score 0-3; note: key: 0 represents no inhibition; 3 is comparable to commercial antibiotic control
[17] = target: LeIspE (Solanum lycopersicum, UniProt P93841); experiment: University of Hamburg photometric enzymatic inhibition assay LeIspE; assay type: biochemical, Lycopersicon esculentum; conditions: read-out: LeIspE IC50
Outline: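 Photometric coupled assay with pyruvate kinase/lactate dehydrogenase following NADH (460 μM). Mix: 100 mM Tris-HCl pH 8.0, 10 mM MgCl2, 1 mM DTT, 2.5 mM phosphoenolpyruvate, 2 mM ATP, 1 mM 4-diphosphocytidyl-2-C-methylerythritol, 1.1% DMSO, 2.4 mU IspE; incubated at 27° C.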

[18] = test system: Pseudomonas aeruginosa; experiment: Antibacterial preliminary screening PA; assay type: cell-based; conditions: score 0-3; note: key: 0 represents no inhibition; 3 is comparable to commercial antibiotic control
[19] = target: Mycobacterium paratuberculosis IspD (MpIspD) (Mycolicibacterium paratuberculosis, UniProt Q743W5); experiment: Thermal shift assay against MpIspD; assay type: binding; conditions: MpIspD
[20] = target: Bt IspD (Burkholderia thailandensis, UniProt Q2SWT6); assay type: binding
Sequence of Bt IspD (Q2SWT6 whole entry): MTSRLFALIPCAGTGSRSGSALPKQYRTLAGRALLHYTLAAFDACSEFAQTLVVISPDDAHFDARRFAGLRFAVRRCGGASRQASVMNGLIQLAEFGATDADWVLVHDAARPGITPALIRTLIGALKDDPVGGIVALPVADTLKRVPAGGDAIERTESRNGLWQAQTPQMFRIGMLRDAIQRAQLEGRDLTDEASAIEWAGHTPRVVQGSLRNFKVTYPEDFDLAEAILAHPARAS
Protocol: ITC studies were performed with a Microcal VP-ITC titration calorimeter (Malvern Instruments). Proteins were dialyzed overnight against four liters of buffer (20 mM sodium phosphate, 150 mM NaCl, pH 7.4). Compounds were dissolved in DMSO and brought to concentration with the dialysis buffer, with a maximum DMSO concentration of 10% by volume, and centrifuged at 10,000 RPM for 10 minutes. DMSO concentrations were matched between the protein and ligand. The dialysis buffer was used for all sample dilutions to ensure buffers matching between the titrant and titrate, thus minimizing the excess heat due to buffer mismatch. The Pace method was utilized for the determination of the extinction coefficients at 280 nm for Ec IspD (30,940 M^−1 cm^−1) and Bt IspD (41,940 M^−1 cm^−1). Cytidine triphosphate's extinction coefficient was 9,100 M^−1 cm^−1. The absorbance values of protein and CTP solutions were determined using the NanoDrop (in triplicate). All other compound concentrations were determined by dry weight. ITC experiments were performed with IspD in the cell and ligand in the syringe, which is at 100 times the concentration of the sample in the cell due to the low predicted affinities for IspD.
The initial injection volume was 2 μL (omitted) followed by 27 10 μL injections, every 240 seconds. Samples were run at 25° C., at pH 7.4, with a stirring speed of 307 RPM. Dilution runs were performed to allow determination of background heats caused by solution mismatch and instrument noise. Dilution runs were performed with ligand (at the same concentration as in the experiment run) in the syringe titrated into the dialysis buffer in the cell. Data were fit using OriginPro 7 with the ITC add-on by the manufacturer.
ITC studies were performed to observe the dissociation constant along with thermodynamic properties of the reactant CTP with Bt IspD.

Sequence of Lycopersicon esculentum IspE (LeIspE) (P93841 89-401): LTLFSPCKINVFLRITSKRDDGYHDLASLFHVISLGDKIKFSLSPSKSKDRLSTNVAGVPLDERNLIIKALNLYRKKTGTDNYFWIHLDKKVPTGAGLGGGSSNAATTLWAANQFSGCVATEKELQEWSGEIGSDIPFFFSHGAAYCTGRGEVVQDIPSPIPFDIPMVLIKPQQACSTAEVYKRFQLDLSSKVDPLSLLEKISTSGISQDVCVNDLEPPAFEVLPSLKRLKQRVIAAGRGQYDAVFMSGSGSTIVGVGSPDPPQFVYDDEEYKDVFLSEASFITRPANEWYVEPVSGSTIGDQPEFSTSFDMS
Sequence of LeIspE (P93841 89-401): as above
T1 sequence (Q46893 whole entry): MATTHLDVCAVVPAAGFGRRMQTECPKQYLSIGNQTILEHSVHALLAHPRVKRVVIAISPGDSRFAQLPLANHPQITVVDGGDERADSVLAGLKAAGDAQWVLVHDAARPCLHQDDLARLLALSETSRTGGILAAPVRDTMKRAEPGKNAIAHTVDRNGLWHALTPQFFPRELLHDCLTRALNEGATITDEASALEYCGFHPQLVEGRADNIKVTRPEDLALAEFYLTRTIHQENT
Sequence of AtIspD (P69834 62-302): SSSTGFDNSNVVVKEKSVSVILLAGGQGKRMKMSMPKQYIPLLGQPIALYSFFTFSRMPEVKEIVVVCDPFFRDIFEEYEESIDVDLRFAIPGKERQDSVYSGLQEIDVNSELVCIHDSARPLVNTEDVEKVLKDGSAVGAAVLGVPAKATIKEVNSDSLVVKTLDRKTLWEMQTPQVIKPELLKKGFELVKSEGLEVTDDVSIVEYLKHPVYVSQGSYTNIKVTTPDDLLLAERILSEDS
Sequence of AtIspF (Q9CAK8 53-231): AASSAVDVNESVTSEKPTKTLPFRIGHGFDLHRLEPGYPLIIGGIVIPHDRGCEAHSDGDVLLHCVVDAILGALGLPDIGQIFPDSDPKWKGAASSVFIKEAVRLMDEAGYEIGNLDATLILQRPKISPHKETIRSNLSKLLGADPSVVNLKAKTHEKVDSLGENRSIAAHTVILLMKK
Sequence of E. coli IspD (Q46893 whole entry): as the sequence (Q46893 whole entry) above
Sequence of Mycobacterium paratuberculosis IspD (MpIspD) (Q743W5 whole entry): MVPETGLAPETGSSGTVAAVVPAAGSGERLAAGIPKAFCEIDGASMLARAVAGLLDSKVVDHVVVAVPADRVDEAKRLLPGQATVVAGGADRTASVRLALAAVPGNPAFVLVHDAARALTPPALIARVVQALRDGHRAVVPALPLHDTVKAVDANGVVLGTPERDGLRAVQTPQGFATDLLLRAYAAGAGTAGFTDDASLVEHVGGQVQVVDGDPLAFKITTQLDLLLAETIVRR

SMILES	melting point [°C]	MtIspD melting temp [3] [°C]	LeIspE melting point change [4] [°C]	LeIspE melting temp [4] [°C]	CP score [5]	IC50 [6] [µM]	IC50 [7] [µM]	CX score [8]	BT score [9]	BC score [10]	ML score [12]	EC score [13]	MS score [15]	KP score [16]	IC50 [17] [µM]	PA score [18]	MtIspD melting point change [3] [°C]	also measured
CC(=O)[O-].CC(=O)[O-].[Cd+2] [cadmium acetate]	–	–	–	–	–	–	–	–	–	–	–	–	–	–	–	–	–	change in the observed melting temperature of Ec IspD [1]: −13.53 °C
[O-][n+]1ccccc1S [2-mercaptopyradine-N-oxide, 2-mercaptopyridine-N-oxide]	–	–	–	–	–	–	–	–	–	–	–	–	–	–	–	–	–	effect on thermal stability of Ec IspD [1]: did not have an effect on the thermal stability
O=C(/C=C/c1ccc(O)cc1)c1ccc(O)cc1O [isoliquiritigenin]	–	–	–	–	–	–	–	–	–	–	–	–	–	–	–	–	–	IC50 [2]: 279 ± 12 µM
c1ccc2[nH]c(-c3nnc(C4CCCC4)o3)cc2c1 [HGN-252, 2-cyclopentyl-5-(1H-indol-2-yl)-1,3,4-oxadiazole]	150 to 154	49.5	−2.50	47.00	0	> 1000	> 1000	0	0	0	0	0	0	0	> 1000	0	–	Bleaching ([11]; 0.5 mM): 0; Germination ([11]; 0.5 mM): 1; Root Dev. ([11]; 0.5 mM): 0; Bleaching ([11]; 1.0 mM): 0; Germination ([11]; 1.0 mM): 2; Root Dev. ([11]; 1.0 mM): 0; inhibition of E. coli IspD activity [14]: significant activity
FC(F)(F)c1nnc(-c2cc3ccccc3[nH]2)o1 [HGN-211, 2-(1H-indol-2-yl)-5-(trifluoromethyl)-1,3,4-oxadiazole]	182 to 184	49.3	−0.75	48.75	0	> 1000	> 1000	0	0	0	0	0	0	0	> 1000	0	1.3	increase in melting point over HGN-207 [19]: 0.3 °C; Bleaching ([11]; 0.5 mM): 0; Germination ([11]; 0.5 mM): 1; Root Dev. ([11]; 0.5 mM): 0; Bleaching ([11]; 1.0 mM): 0; Germination ([11]; 1.0 mM): 2; Root Dev. ([11]; 1.0 mM): 0
C[CH2][Hg][S]c1ccccc1C(=O)[O-].[Na+] [thimerosal, reference compound]	–	–	–	–	–	–	–	–	–	–	–	–	–	–	–	–	–	change in the observed melting temperature of Ec IspD [1]: +3.53 °C; IC50 ([2]; EnzChek assay, read-out: Ec IspD IC50): 381 ± 12 µM
CC(C)c1cc2c(c(O)c1O)[C@@]1(C(=O)O)CCCC(C)(C)[C@@H]1CC2 [carnosic acid]	–	–	–	–	–	–	–	–	–	–	–	–	–	–	–	–	–	IC50 [2]: 794 ± 100 µM
C[CH2][Hg][Cl] [ethyl mercuric chloride]	–	–	–	–	–	–	–	–	–	–	–	–	–	–	–	–	–	effect on thermal stability of Ec IspD [1]: affected the stability of the enzyme
c1ccc(Cc2nnc(-c3cc4ccccc4[nH]3)o2)cc1 [HGN-221, 2-benzyl-5-(1H-indol-2-yl)-1,3,4-oxadiazole]	211 to 215	48.5	0.00	49.50	0	636 ± 68	> 1000	0	0	0	0	0	0	0	> 1000	0	0.5	Bleaching ([11]; 0.15 mM): 0; Germination ([11]; 0.15 mM): 0; Root Dev. ([11]; 0.15 mM): 0; Bleaching ([11]; 0.3 mM): 0; Germination ([11]; 0.3 mM): 0; Root Dev. ([11]; 0.3 mM): 0
CC(C)c1nnc(-c2cc3ccccc3[nH]2)o1 [HGN-240, 2-(1H-indol-2-yl)-5-isopropyl-1,3,4-oxadiazole]	164 to 170	48.8	−1.50	48.00	0	> 1000	> 1000	0	0	0	0	0	0	0	> 1000	0	0.8	Bleaching ([11]; 0.5 mM): 0; Germination ([11]; 0.5 mM): 1; Root Dev. ([11]; 0.5 mM): 0; Bleaching ([11]; 1.0 mM): 0; Germination ([11]; 1.0 mM): 2; Root Dev. ([11]; 1.0 mM): 0
Clc1ccc(-c2nnc(-c3nc4ccccc4[nH]3)o2)cc1 [HGN-421, 2-(1H-benzo[d]imidazole-2-yl)-5-(4-chlorophenyl)-1,3,4-oxadiazole]	250 to 255	48.8	−1.50	48.00	0	88	484 ± 95	0	1	0	0	0	1	0	298 ± 49	0	0.8	antibacterial activity against Burkholderia thailandensis [9]: slight antibacterial activity; Bleaching ([11]; 0.15 mM): 0; Germination ([11]; 0.15 mM): 1; Root Dev. ([11]; 0.15 mM): 0; Bleaching ([11]; 0.3 mM): 0; Germination ([11]; 0.3 mM): 1; Root Dev. ([11]; 0.3 mM): 0; antibacterial activity against Mycobacterium smegmatis [15]: slight antibacterial activity
Nc1ccn([C@@H]2O[C@H](COP(=O)(O)OP(=O)(O)OP(=O)(O)O)[C@@H](O)[C@H]2O)c(=O)n1 [CTP, Cytidine triphosphate]	–	–	–	–	–	–	–	–	–	–	–	–	–	–	–	–	–	KD app (ITC, words) [20]: in the millimolar range; entropic contribution −TΔS (ITC) [20]: 5.6±1.838; ΔH° (ITC) ([20]; stoichiometry fixed at two CTPs per dimer): -6.991 ± 1.749 kcal/mol
[O-][n+]1ccccc1[S][Zn][S]c1cccc[n+]1[O-] [Zinc Pyrathione]	–	–	–	–	–	–	–	–	–	–	–	–	–	–	–	–	–	change in the observed melting temperature of Ec IspD [1]: −7.72 °C
